In patent publication US20200369626A1 (Washington University, priority 2019, published 2020):
Like-named read-outs stand apart in the source and are kept apart here.

Assays:
[1] = biological target: T1, S1PR2 (Homo sapiens, UniProt O95136); assay: competitive [^32P]S1P binding assay on cell membranes, S1PR2
T1 construct: purchased
Description: The test compounds were dissolved in DMSO and diluted into test samples with increasing concentrations with assay buffer. Commercial cell membranes expressing recombinant human S1PR were diluted with assay buffer to make a 20-40 μg/mL of solution. […] The plate was incubated for 60 min at room temperature with shaking and terminated by collecting the membranes onto 96-well glass fiber (GF/B) filtration plates (Millipore, Billerica, Mass.). Each filter was washed with 200 μL of assay buffer for a total of five washes. […] The IC50 values were fitted from GraphPad Prism 6 using one site Nonlinear Regression.

[2] = biological target: T2, S1PR3 (Homo sapiens, UniProt Q99500); assay: competitive [^32P]S1P binding assay on cell membranes, S1PR3
T2 construct: purchased
Description: (§1) The test compounds were dissolved in DMSO and diluted into test samples with increasing concentrations with assay buffer. Commercial cell membranes expressing recombinant human S1PR were diluted with assay buffer to make a 20-40 μg/mL of solution. […] The plate was incubated for 60 min at room temperature with shaking and terminated by collecting the membranes onto 96-well glass fiber (GF/B) filtration plates (Millipore, Billerica, Mass.). Each filter was washed with 200 μL of assay buffer for a total of five washes. The filter bound radionuclide was measured by a Beckman LS 3801 scintillation counter using Cherenkov counting. The IC50 values were fitted from GraphPad Prism 6 using one site Nonlinear Regression.

[3] = biological target: T3, S1PR1 (Homo sapiens, UniProt P21453); assay: competitive [^32P]S1P binding assay on cell membranes, S1PR1
T3 construct: purchased
Description: as §1

[4] = biological target: T4, S1PR5 (Homo sapiens, UniProt Q9H228); assay: competitive [^32P]S1P binding assay on cell membranes, S1PR5
T4 construct: purchased

[5] = biological target: T5, S1PR4 (Homo sapiens, UniProt O95977); assay: competitive [^32P]S1P binding assay on cell membranes, S1PR4
T5 construct: purchased
T5 sequence (O95977 1-384): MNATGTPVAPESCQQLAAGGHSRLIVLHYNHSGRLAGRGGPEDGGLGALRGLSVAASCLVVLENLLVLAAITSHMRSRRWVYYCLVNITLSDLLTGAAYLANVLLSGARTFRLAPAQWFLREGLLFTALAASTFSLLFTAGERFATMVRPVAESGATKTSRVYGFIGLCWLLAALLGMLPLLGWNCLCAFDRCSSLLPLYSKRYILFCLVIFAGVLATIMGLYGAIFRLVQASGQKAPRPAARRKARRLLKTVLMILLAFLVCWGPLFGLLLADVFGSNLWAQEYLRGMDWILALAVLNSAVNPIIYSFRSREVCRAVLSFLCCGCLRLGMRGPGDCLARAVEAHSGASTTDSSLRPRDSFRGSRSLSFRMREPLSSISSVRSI
Description: as §1

[6] = [^32P]S1P competition, read-out: IC50 value, S1PR2 binding

T3 sequence (P21453 whole entry): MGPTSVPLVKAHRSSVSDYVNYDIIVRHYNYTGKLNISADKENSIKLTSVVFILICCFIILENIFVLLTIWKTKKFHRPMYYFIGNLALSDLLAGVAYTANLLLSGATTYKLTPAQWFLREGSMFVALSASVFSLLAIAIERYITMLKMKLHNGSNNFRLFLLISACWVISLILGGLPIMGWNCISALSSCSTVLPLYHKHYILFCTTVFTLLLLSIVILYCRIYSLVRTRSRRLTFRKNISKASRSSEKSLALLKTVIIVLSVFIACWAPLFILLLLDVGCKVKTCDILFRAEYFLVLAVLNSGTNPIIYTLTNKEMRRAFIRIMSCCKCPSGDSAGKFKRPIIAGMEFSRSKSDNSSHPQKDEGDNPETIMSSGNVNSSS
T1 sequence (O95136 whole entry): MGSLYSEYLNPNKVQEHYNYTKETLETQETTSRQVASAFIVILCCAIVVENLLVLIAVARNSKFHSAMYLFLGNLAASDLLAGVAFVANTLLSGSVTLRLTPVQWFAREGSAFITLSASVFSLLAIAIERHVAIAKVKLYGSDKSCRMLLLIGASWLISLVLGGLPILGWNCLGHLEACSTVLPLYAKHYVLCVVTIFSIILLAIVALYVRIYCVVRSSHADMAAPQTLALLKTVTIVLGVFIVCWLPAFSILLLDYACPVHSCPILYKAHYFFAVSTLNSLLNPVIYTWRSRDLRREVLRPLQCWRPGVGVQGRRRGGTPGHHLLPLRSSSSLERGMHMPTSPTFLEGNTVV
T4 sequence (Q9H228 whole entry): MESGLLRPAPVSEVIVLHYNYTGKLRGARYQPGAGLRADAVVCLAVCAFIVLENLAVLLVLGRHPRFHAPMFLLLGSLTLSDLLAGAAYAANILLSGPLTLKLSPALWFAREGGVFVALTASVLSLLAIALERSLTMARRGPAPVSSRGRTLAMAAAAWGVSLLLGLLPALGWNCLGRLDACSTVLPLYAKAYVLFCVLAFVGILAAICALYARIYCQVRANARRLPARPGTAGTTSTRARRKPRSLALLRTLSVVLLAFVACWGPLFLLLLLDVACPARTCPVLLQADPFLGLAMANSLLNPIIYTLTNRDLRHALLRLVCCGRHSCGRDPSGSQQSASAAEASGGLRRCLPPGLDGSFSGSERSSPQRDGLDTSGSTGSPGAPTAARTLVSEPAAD
T2 sequence (Q99500 whole entry): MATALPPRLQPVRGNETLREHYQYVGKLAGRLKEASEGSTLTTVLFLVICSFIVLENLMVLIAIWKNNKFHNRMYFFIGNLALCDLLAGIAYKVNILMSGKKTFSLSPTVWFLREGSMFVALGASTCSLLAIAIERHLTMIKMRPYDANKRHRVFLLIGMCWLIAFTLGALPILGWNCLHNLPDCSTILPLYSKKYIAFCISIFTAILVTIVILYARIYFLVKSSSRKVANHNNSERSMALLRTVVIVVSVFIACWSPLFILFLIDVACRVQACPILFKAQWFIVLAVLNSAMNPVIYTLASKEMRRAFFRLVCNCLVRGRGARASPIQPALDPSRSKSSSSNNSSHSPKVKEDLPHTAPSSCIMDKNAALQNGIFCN

IC50 ([1]; Table 5, read-out: IC50 S1PR2) [nM]	IC50 ([2]; Table 5) [nM]	IC50 ([3]; Table 5) [nM]	Structure (SMILES)	other results
			CCC(CC)CC1(O)CCN(C(=O)Nc2cc(Oc3ccc(F)cc3)cc(C(F)(F)F)c2)CC1 [Compound 17c, 4-(2-Ethylbutyl)-N-(3-(4-fluorophenoxy)-5-(trifluoromethyl)phenyl)-4-hydroxypiperidine-1-carboxamide]	IC50 ([1]; [^32P]S1P competition, IC50 ± SD, second Table 1, read-out: S2PR2 IC50): 362 nM; melting point: 108 to 111 °C
			CCC(CC)CC1(O)CCN(C(=O)Nc2cc(Oc3ccc(F)cc3)cc(Oc3ccc(OC)cc3)c2)CC1 [Compound 28a, 4-(2-Ethylbutyl)-N-(3-(4-fluorophenoxy)-5-(4-methoxyphenoxy)phenyl)-4-hydroxypiperidine-1-carboxamide]	IC50 [1, 6]: 188 nM; melting point: 79 to 80 °C
			CCC(CC)CC1(O)CCN(C(=O)Nc2cc(Oc3ccc(F)cc3)cc(Oc3ccc4c(c3)CCN(C)C4=O)c2)CC1 [Compound 28b, 4-(2-Ethylbutyl)-N-(3-(4-fluorophenoxy)-5-((2-methyl-1-oxo-1,2,3,4-tetrahydroisoquinolin-6-yl)oxy)phenyl)-4-hydroxypiperidine-1-carboxamide]	IC50 [2]: > 1000 nM; IC50 [3]: > 1000 nM; IC50 [4]: > 1000 nM; IC50 [5]: > 1000 nM; melting point: 80 to 82 °C
			CCC(CC)CC1(O)CCN(C(=O)Nc2cc(Oc3ccc(F)cc3)cc(Oc3ccc4c(c3)CCNC4=O)c2)CC1 [Compound 28c, 4-(2-Ethylbutyl)-N-(3-(4-fluorophenoxy)-5-((1-oxo-1,2,3,4-tetrahydroisoquinolin-6-yl)oxy)phenyl)-4-hydroxypiperidine-1-carboxamide]	IC50 [2]: > 1000 nM; IC50 [3]: > 1000 nM; IC50 [4]: > 1000 nM; IC50 [5]: > 1000 nM; melting point: 81 to 83 °C
			CCC(CC)CC1(O)CCN(C(=O)Nc2cc(Oc3ccc(F)cc3)cc(Oc3ccc(C(=O)NCCF)cc3)c2)CC1 [Compound 28d, 4-(2-Ethylbutyl)-N-(3-(4-((2-fluoroethyl)carbamoyl)phenoxy)-5-(4-fluorophenoxy)phenyl)-4-hydroxypiperidine-1-carboxamide]	IC50 ([1]; [^32P]S1P competition, Table 2, read-out: IC50 S1PR2): 66.7 ± 7.8 nM; IC50 [2]: > 1000 nM; IC50 [3]: > 1000 nM; IC50 [4]: > 1000 nM; IC50 [5]: > 1000 nM; melting point: 79 to 82 °C
			CCC(CC)CC1(O)CCN(C(=O)Nc2cc(Oc3ccc(F)cc3)cc(Sc3ccc(S(C)(=O)=O)cc3)c2)CC1 [Compound 28e, 4-(2-Ethylbutyl)-N-(3-(4-fluorophenoxy)-5-((4-(methylsulfonyl)phenyl)thio)phenyl)-4-hydroxypiperidine-1-carboxamide]	IC50 [1, 6]: 14.6 nM; IC50 [2]: > 1000 nM; IC50 [3]: > 1000 nM; IC50 [4]: > 1000 nM; IC50 [5]: > 1000 nM; melting point: 78 to 80 °C
			CC(C)CC1(O)CCN(C(=O)Nc2cc(Oc3ccc(F)cc3)cc(Oc3ccc(C(=O)NCCF)cc3)c2)CC1 [Compound 28f, N-(3-(4-((2-fluoroethyl)carbamoyl)phenoxy)-5-(4-fluorophenoxy)phenyl)-4-hydroxy-4-isobutylpiperidine-1-carboxamide]	melting point: 81 to 83 °C
			Cc1nn(C)c2nc(NNC(=O)Nc3cc(Cl)nc(Cl)c3)cc(C(C)C)c12 [JTE-013, reference compound]	IC50 ([2]; [^32P]S1P competition, Table 2): > 1000 nM; IC50 ([3]; [^32P]S1P competition, Table 2): > 1000 nM; IC50 ([4]; [^32P]S1P competition, Table 2): > 1000 nM; IC50 ([5]; [^32P]S1P competition, Table 2): > 1000 nM
284 ± 27	> 1000	> 1000	CNC(=O)c1ccc(Oc2cc(NC(=O)N3CCC(O)(CC(C)C)CC3)cc(C(F)(F)F)c2)cc1 [TZ51-024]	
165 ± 35	> 1000	> 1000	CC(C)CC1(O)CCN(C(=O)Nc2cc(Oc3ccc(F)cc3)cc(C(F)(F)F)c2)CC1 [TZ51-032]	
296 ± 32	> 1000	> 1000	CCC(CC)CC1(O)CCN(C(=O)Nc2cc(Oc3ccc(S(C)(=O)=O)cc3)cc(C(F)(F)F)c2)CC1 [TZ51-033]	
270 ± 72	> 1000	> 1000	CC(C)CC1(O)CCN(C(=O)Nc2cc(Oc3ccc(S(C)(=O)=O)cc3)cc(C(F)(F)F)c2)CC1 [TZ51-035]	
	> 1000	> 1000	CCC(CC)CC1(O)CCN(C(=O)Nc2cc(Oc3ccc(F)cc3)cc(Oc3ccc(C(=O)NCCF)cc3)c2)CC1 [TZ57-028]	
195 ± 36	> 1000	> 1000	CC(C)CC1(O)CCN(C(=O)Nc2cc(Oc3ccc(F)cc3)cc(Oc3ccc(C(=O)NCCF)cc3)c2)CC1 [TZ57-029]	
	> 1000	> 1000	CC(C)CC1(O)CCN(C(=O)Nc2cc(Oc3ccc(F)cc3)cc(Sc3ccc(S(C)(=O)=O)cc3)c2)CC1 [TZ57-031]	
	> 1000	> 1000	CCC(CC)CC1(O)CCN(C(=O)Nc2cc(Oc3ccc(F)cc3)cc(Sc3ccc(S(C)(=O)=O)cc3)c2)CC1 [TZ57-032]	
525 ± 119	> 1000	> 1000	CC(C)CC1(O)CCN(C(=O)Nc2cc(Oc3ccc(OCCF)cc3)cc(Oc3ccc(S(C)(=O)=O)cc3)c2)CC1 [TZ57-033]	
418 ± 118	> 1000	> 1000	CCC(CC)CC1(O)CCN(C(=O)Nc2cc(Oc3ccc(OCCF)cc3)cc(Oc3ccc(S(C)(=O)=O)cc3)c2)CC1 [TZ57-034]	
73 ± 11	> 1000	> 1000	CCC(CC)CC1(O)CCN(C(=O)Nc2cc(Oc3ccc(F)cc3)cc(Oc3ccc4c(c3)CCN(C)C4=O)c2)CC1 [TZ57-089]	
30 ± 4	> 1000	> 1000	CCC(CC)CC1(O)CCN(C(=O)Nc2cc(Oc3ccc(F)cc3)cc(Oc3ccc4c(c3)CCNC4=O)c2)CC1 [TZ57-090]	

IC50 ([1]; Table 5, read-out: IC50 S1PR2) [nM]	IC50 ([2]; Table 5) [nM]	IC50 ([3]; Table 5) [nM]	Structure (SMILES)	other results
5.7 ± 0.5	> 1000	> 1000	COc1ccc(NC(=O)Cn2c(=O)c3ccccc3n(CC(=O)Nc3cc(Cl)c(OC)cc3OC)c2=O)cc1 [TZ59-104, N-(5-Chloro-2,4-dimethoxyphenyl)-2-(3-(2-((4-methoxyphenyl)amino)-2-oxoethyl)-2,4-dioxo-3,4-dihydroquinazolin-1(2H)-yl)acetamide]	
6.3 ± 0.9	> 1000	> 1000	COc1cc(OC)c(NC(=O)Cn2c(=O)n(CC(=O)Nc3ccccc3OC)c(=O)c3ccccc32)cc1Cl [TZ59-134, N-(5-Chloro-2,4-dimethoxyphenyl)-2-(3-(2-((2-methoxyphenyl)amino)-2-oxoethyl)-2,4-dioxo-3,4-dihydroquinazolin-1(2H)-yl)acetamide]	IC50 ([4]; Table 5): > 1000 nM; IC50 ([5]; Table 5): > 1000 nM
> 1000			COc1cc(OC)c(NC(=O)Cn2c(=O)n(CCF)c(=O)c3ccccc32)cc1Cl [TZ62-083]	
> 1000			COc1cc(OC)c(NC(=O)Cn2c(=O)n(C)c(=O)c3ccccc32)cc1Cl [TZ62-084]	
> 1000			CCn1c(=O)c2ccccc2n(CC(=O)Nc2cc(Cl)c(OC)cc2OC)c1=O [TZ62-087]	
76 ± 19			COc1cc(OC)c(NC(=O)Cn2c(=O)n(CCCC(=O)NC3CCCC3)c(=O)c3ccccc32)cc1Cl [TZ62-090]	
> 1000			COc1cc(OC)c(NC(=O)Cn2c(=O)n(CCCC(=O)NC3CCCC3)c(=O)c3cc(Cl)ccc32)cc1Cl [TZ62-091]	
> 1000			O=C(O)Cn1c(=O)c2ccccc2n(CC(=O)Nc2cc(Cl)nc(Cl)c2)c1=O [TZ62-092]	
> 1000			COc1ccccc1NC(=O)Cn1c(=O)c2ccccc2n(CC(=O)Nc2cc(Cl)nc(Cl)c2)c1=O [TZ62-093]	
> 1000			CCOc1ccc(C(=O)Cn2c(=O)n(Cc3ccccc3)c(=O)c3ccccc32)cc1Cl [TZ62-097]	
> 1000			CCOc1ccc(C(=O)Cn2c(=O)n(C)c(=O)c3ccccc32)cc1Cl [TZ62-098]	
> 1000			CCOc1ccc(C(=O)Cn2c(=O)n(CC)c(=O)c3ccccc32)cc1Cl [TZ62-099]	
> 1000			CCOc1ccc(C(=O)Cn2c(=O)n(CCF)c(=O)c3ccccc32)cc1Cl [TZ62-100]	
> 1000			COc1cc(OC)c(NC(=O)Cn2c(=O)n(CCN3CCOCC3)c(=O)c3ccccc32)cc1Cl [TZ62-102]	
49.8 ± 4.9			CCOc1ccc(C(=O)Cn2c(=O)n(CC(=O)Nc3ccccc3OC)c(=O)c3ccccc32)cc1Cl [TZ62-114]	
270 ± 210			CCOc1ccc(C(=O)Cn2cc(C(=O)O)c(=O)c3ccccc32)cc1Cl [TZ62-120]	
> 1000			COc1ccc(NC(=O)c2cn(CC(=O)Nc3cc(Cl)c(OC)cc3OC)c3ccccc3c2=O)cc1 [TZ62-125]	
> 1000			COc1ccc2c(c1)c(=O)c1ccccc1n2CC(=O)Nc1cc(Cl)c(OC)cc1OC [TZ65-032]	
16.9 ± 5.6			COc1cc(OC)c(NC(=O)Cn2c(=O)n(CC(=O)Nc3ccc(I)cc3)c(=O)c3ccccc32)cc1Cl [TZ65-033]	
10 ± 2.4			COc1cc(OC)c(NC(=O)Cn2c(=O)n(CC(=O)Nc3ccc(OCCF)cc3)c(=O)c3ccccc32)cc1Cl [TZ65-049]	
